Data from ChEMBL document CHEMBL1201862, “PubChem BioAssay data set” (2004).
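The compound was tested at five concentrations on cells cultured in 96-well plates, with a 48-hour exposure period. At the GI50, growth is halved.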 The source made the active and inactive calls. Rule as the data show it: active = GI50 up to about 1.1 µM and inactive = higher.

What was measured:
Assay in all cases: NCI-60 cell line screen, 48 h
HCC 2998 = tested on: HCC 2998
OVCAR-3 = tested on: OVCAR-3
IGROV-1 = tested on: IGROV-1
A498 = tested on: A498
NCI/ADR-RES = tested on: NCI/ADR-RES
786-0 = tested on: 786-0
Malme-3M = tested on: Malme-3M
A549 = tested on: A549
K562 = tested on: K562
U-251 = tested on: U-251
T47D = tested on: T47D
SW-620 = tested on: SW-620
ACHN = tested on: ACHN
UACC-257 = tested on: UACC-257
DU-145 = tested on: DU-145
OVCAR-5 = tested on: OVCAR-5
NCI-H226 = tested on: NCI-H226
MDA-MB-435 = tested on: MDA-MB-435
M14 = tested on: M14
CCRF-CEM = tested on: CCRF-CEM

Compound	GI50 (HCC 2998)	GI50 (OVCAR-3)	GI50 (IGROV-1)	GI50 (A498)	GI50 (NCI/ADR-RES)	GI50 (786-0)	GI50 (Malme-3M)	GI50 (A549)	GI50 (K562)	GI50 (U-251)	GI50 (T47D)	GI50 (SW-620)	GI50 (ACHN)	GI50 (UACC-257)	GI50 (DU-145)	GI50 (OVCAR-5)	GI50 (NCI-H226)	GI50 (MDA-MB-435)	GI50 (M14)	GI50 (CCRF-CEM)
COc1cc(-c2[o+]c3cc(O)cc(O)c3cc2O)cc(O)c1O	35 µM (inactive)	> 100 µM (inactive)	> 100 µM (inactive)	> 100 µM (inactive)	> 100 µM (inactive)	> 100 µM (inactive)	> 100 µM (inactive)	> 100 µM (inactive)	> 100 µM (inactive)	> 100 µM (inactive)	> 100 µM (inactive)	30.6 µM (inactive)	> 100 µM (inactive)	> 100 µM (inactive)	> 100 µM (inactive)	> 100 µM (inactive)	> 100 µM (inactive)	19.4 µM (inactive)	> 100 µM (inactive)	25.9 µM (inactive)
COc1cc2nc(-c3ccccc3)cc(O)c2cc1OC	16.5 µM (inactive)	4.44 µM (inactive)	28.2 µM (inactive)	40.6 µM (inactive)	54.8 µM (inactive)	27.8 µM (inactive)	> 50.6 µM (inactive)	18.5 µM (inactive)	4.76 µM (inactive)	6.95 µM (inactive)	> 100 µM (inactive)	10.8 µM (inactive)	41.1 µM (inactive)	63.7 µM (inactive)	54 µM (inactive)	41.1 µM (inactive)	14.4 µM (inactive)	2.86 µM (inactive)	9.02 µM (inactive)	8 µM (inactive)
CO/N=C(\C)c1ccc(Nc2c3ccccc3nc3occc23)cc1	0.322 µM (active)	0.284 µM (active)	0.233 µM (active)	0.773 µM (active)	0.181 µM (active)	0.74 µM (active)	0.313 µM (active)	0.643 µM (active)	0.195 µM (active)	0.522 µM (active)	0.522 µM (active)	0.33 µM (active)	0.568 µM (active)	14.3 µM (inactive)	1.07 µM (active)	4.08 µM (inactive)	4.34 µM (inactive)	0.0451 µM (active)	0.397 µM (active)	0.47 µM (active)
CCCCCCNCCCNc1c2cc(OC)ccc2nc2cccc([N+](=O)[O-])c12	0.0203 µM (active)	0.0966 µM (active)	0.0119 µM (active)	1.62 µM (inactive)	0.658 µM (active)	0.0834 µM (active)	0.0304 µM (active)	0.0578 µM (active)	0.103 µM (active)	0.131 µM (active)	0.109 µM (active)	< 0.0233 µM (active)	0.14 µM (active)	0.366 µM (active)	0.0413 µM (active)	0.135 µM (active)	0.257 µM (active)	0.143 µM (active)	0.143 µM (active)	0.0403 µM (active)
CC(C)CCc1n[nH]c(=O)n1/N=C\c1ccccc1	> 100 µM (inactive)	> 100 µM (inactive)	> 100 µM (inactive)	49 µM (inactive)	57.4 µM (inactive)	> 100 µM (inactive)	> 100 µM (inactive)	> 100 µM (inactive)	83 µM (inactive)	> 100 µM (inactive)	> 100 µM (inactive)	> 100 µM (inactive)	> 100 µM (inactive)	> 100 µM (inactive)	> 100 µM (inactive)	> 100 µM (inactive)	> 100 µM (inactive)	> 100 µM (inactive)	> 100 µM (inactive)	> 100 µM (inactive)
CCCC[C@H]1C(=O)O[C@H](C)[C@H](NC(=O)c2cccc(NC=O)c2OC)C(=O)O[C@@H](C)[C@@H]1OC(=O)C(C)CC.CCCC[C@H]1C(=O)O[C@H](C)[C@H](NC(=O)c2cccc(NC=O)c2OC)C(=O)O[C@@H](C)[C@@H]1OC(=O)CC(C)C (stereo not given in full)	29 µM (inactive)	10.2 µM (inactive)	7.1 µM (inactive)	8.81 µM (inactive)	23 µM (inactive)	12.1 µM (inactive)	15.8 µM (inactive)	10.3 µM (inactive)	12.2 µM (inactive)	9.46 µM (inactive)	14 µM (inactive)	20.3 µM (inactive)	10.8 µM (inactive)	12.1 µM (inactive)	13.4 µM (inactive)	22.2 µM (inactive)	12.2 µM (inactive)	10.3 µM (inactive)	14.6 µM (inactive)	3.32 µM (inactive)
C=C1C(=O)OC2/C=C(CO)/C=C\C3OC3(C)CC(OC(=O)/C(C)=C/COC(C)=O)C12 (stereo not given)	13.4 µM (inactive)	2.46 µM (inactive)	7.8 µM (inactive)	7.43 µM (inactive)	3.97 µM (inactive)	1.97 µM (inactive)	1.77 µM (inactive)	11.9 µM (inactive)	3.3 µM (inactive)	3.95 µM (inactive)	2.65 µM (inactive)	1.37 µM (inactive)	3.14 µM (inactive)	2.37 µM (inactive)	16.6 µM (inactive)	13.9 µM (inactive)	12.2 µM (inactive)	2 µM (inactive)	2.3 µM (inactive)	1.26 µM (inactive)
COc1ccc(N2C(=O)c3cccnc3S2(=O)=O)cc1	> 100 µM (inactive)	> 100 µM (inactive)	> 100 µM (inactive)	> 100 µM (inactive)	> 100 µM (inactive)	> 100 µM (inactive)	> 100 µM (inactive)	> 100 µM (inactive)	> 100 µM (inactive)	> 100 µM (inactive)	> 100 µM (inactive)	> 100 µM (inactive)	> 100 µM (inactive)	> 100 µM (inactive)	> 100 µM (inactive)	> 100 µM (inactive)	> 100 µM (inactive)	> 100 µM (inactive)	> 100 µM (inactive)	> 100 µM (inactive)
CCCCC(=O)OC[n+]1ccc(-c2c(COC(=O)NC(C)C)c(COC(=O)NC(C)C)c3n2CCC3)cc1	> 100 µM (inactive)	> 100 µM (inactive)	> 100 µM (inactive)	23.9 µM (inactive)	> 100 µM (inactive)	39.4 µM (inactive)	> 100 µM (inactive)	> 100 µM (inactive)	> 90.8 µM (inactive)	> 71.3 µM (inactive)	> 100 µM (inactive)	> 76.2 µM (inactive)	34.6 µM (inactive)	> 100 µM (inactive)	> 70.5 µM (inactive)	> 100 µM (inactive)	> 100 µM (inactive)	> 100 µM (inactive)	> 77.4 µM (inactive)	33.7 µM (inactive)
COC(OC)(c1ccccc1)C(I)I	23.1 µM (inactive)	15.3 µM (inactive)	13.9 µM (inactive)	> 10 µM (inactive)	16.3 µM (inactive)	8.36 µM (inactive)	3.15 µM (inactive)	18.5 µM (inactive)	2.58 µM (inactive)	16.5 µM (inactive)	19.2 µM (inactive)	2.92 µM (inactive)	16.5 µM (inactive)	3.45 µM (inactive)	24.5 µM (inactive)	16.2 µM (inactive)	20.8 µM (inactive)	4.37 µM (inactive)	5.37 µM (inactive)	2.31 µM (inactive)
COc1cc(O)c2c(=O)c3c(C)cccc3n(C)c2c1	> 10 µM (inactive)	> 10 µM (inactive)	> 10 µM (inactive)	> 10 µM (inactive)	> 10 µM (inactive)	> 10 µM (inactive)	> 10 µM (inactive)	> 10 µM (inactive)	> 10 µM (inactive)	> 10 µM (inactive)	> 10 µM (inactive)	> 10 µM (inactive)	> 10 µM (inactive)	> 10 µM (inactive)	> 10 µM (inactive)	> 10 µM (inactive)	> 10 µM (inactive)	> 10 µM (inactive)	> 10 µM (inactive)	> 10 µM (inactive)
COc1ccc(CN(Cc2ccc(OC)cc2)C(=O)CC2(O)CCc3ccccc3C2)cc1 (stereo not given)	68.9 µM (inactive)	> 100 µM (inactive)	> 100 µM (inactive)	> 100 µM (inactive)	12.9 µM (inactive)	> 100 µM (inactive)	28.2 µM (inactive)	30.1 µM (inactive)	> 100 µM (inactive)	63.1 µM (inactive)	8.71 µM (inactive)	> 100 µM (inactive)	49.8 µM (inactive)	42.8 µM (inactive)	> 100 µM (inactive)	> 100 µM (inactive)	15.1 µM (inactive)	34.8 µM (inactive)	66.1 µM (inactive)	16.6 µM (inactive)
CCC1(c2ccc(N3C(=O)c4cc(OC)c(OC)cc4C3=O)cc2)CCC(=O)NC1=O (stereo not given)	> 10 µM (inactive)	> 10 µM (inactive)	> 10 µM (inactive)	> 10 µM (inactive)	> 10 µM (inactive)	> 10 µM (inactive)	> 10 µM (inactive)	> 10 µM (inactive)	> 10 µM (inactive)	> 10 µM (inactive)	> 10 µM (inactive)	> 10 µM (inactive)	> 10 µM (inactive)	> 10 µM (inactive)	> 10 µM (inactive)	> 10 µM (inactive)	> 10 µM (inactive)	> 10 µM (inactive)	> 10 µM (inactive)	> 10 µM (inactive)
O=c1c2ccccc2n2cnc3ccc(NCCNCCO)c1c32	1.77 µM (inactive)	2.19 µM (inactive)	1.91 µM (inactive)	1.71 µM (inactive)	2.81 µM (inactive)	0.889 µM (active)	2.36 µM (inactive)	1.05 µM (active)	1.34 µM (inactive)	2.1 µM (inactive)	4.76 µM (inactive)	0.589 µM (active)	0.836 µM (active)	3.37 µM (inactive)	0.384 µM (active)	2.02 µM (inactive)	1.29 µM (inactive)	1.52 µM (inactive)	2.71 µM (inactive)	1.22 µM (inactive)
